Columns and labels:
[1] = tested on: α-DNP antibody / ASGPR on hepatocytes; assay: Ternary complex formation between hepatocytes and α-DNP antibody; assay type: cell-based
α-DNP antibody [2] = assay: Endocytosis of α-DNP antibody in hepatocytes; assay type: cell-based; settings: FIG. 6C; 12 hour time point
α-DNP antibody [3] = assay: Colocalization microscopy studies (Alexa 488 signal, EEA1/LAMP2); assay type: cell-based; settings: FIG. 7A
Experimental: Cells were grown in 8-well microscope cell culture containers (Thermo, 177402) treated with polylysine (Fisher Scientific, 343810001). For all experiments, D-MoDE-A was used at a final concentration of 40 nM, and antibody was used at a final concentration of 100 nM. At 12 hours, cell culture media was removed and cells were washed with PBS once before fixation with 3.5% formaldehyde PBS solution for 13 minutes. Cells were then washed with PBS, and permeabilized for 5 minutes with 0.5% triton X-100 in PBS. Cells were blocked with 0.2% tween in TBS (Tween 20, AmericanBio, Ref AB02038-00500) and 3% BSA (Sigma, A9418) for one hour at room temperature. […] After incubation for 1 hour in a humidified chamber protected from light, cells were washed 3× with PBST for 5 minutes each. Cells were then treated with Alexa Fluor 568-labeled secondary antibody (Abcam, ab175473) at 1:500 dilution. Cells were washed 3× with PBST for 5 minutes each, then treated with PBS containing Hoechst stain (final concentration 1 μg/mL), incubated at room temperature for at least 10 minutes, and imaged. Cells were visualized using a Zeiss Axio Observer Z1 inverted microscope using 63× magnification under oil. Image analysis was performed on ZEN2 (blue edition) version 2.0.0.0.

α-DNP antibody [4] = assay: In vivo serum levels of α-DNP antibody in mice (ELISA); settings: FIG. 8D, single variable dose
Experimental: In vivo experiments were performed under Yale University IACUC supervision following protocol entitled “pre-clinical evaluation of small molecule immunomodulators” (Protocol number 2017-11445). Experiments were performed in male nude mice purchased from Jackson Laboratory (NU/J, Stock No. 002019). Compounds were administered i.p. in a volume of 100 μL PBS. Approximately 25 μL of blood was collected at each time point by saphenous bleed. Antibody was administered as 40 μg in 100 μL i.p. Compounds were administered daily at the specified dose throughout the course of experiments. For data analysis, antibody levels were normalized to the recorded concentration of antibody observed in each mouse 24 hours after the i.p. administration.
ELISA analysis of serum samples was performed using MaxiSorp 96 well plates (Thermo, 44-2404-21). Plates were coated with 50 μL of BSA-DNP (Invitrogen, A23018) at 100 ug/mL in PBS and incubated at 4° C. overnight. Coating solution was then removed, and the plates were blocked with 2% BSA in PBS for 2 hours at room temperature, followed by washing twice with PBST (0.2% Tween). Serum samples were diluted in 2% BSA in PBS. […] The plates were then treated with TMB (Thermo 34028) followed by 2 M H2SO4 and analyzed for OD at 450 nm on a plate reader (BioTek Synergy 2). Sample concentrations were determined against a standard curve.

## CC(=O)N[C@H]1[C@H](OCCOCCOCCNC(=O)CCOCC(COCCC(=O)NCCOCCOCCO[C@@H]2O[C@H](CO)[C@H](O)[C@H](O)[C@H]2NC(C)=O)(COCCC(=O)NCCOCCOCCO[C@@H]2O[C@H](CO)[C@H](O)[C@H](O)[C@H]2NC(C)=O)NC(=O)CNC(=O)COCCOCCOCCNc2ccc([N+](=O)[O-])cc2[N+](=O)[O-])O[C@H](CO)[C@H](O)[C@@H]1O [D-MoDE-A]
[1]; FIG. 6A
  formation of a ternary complex between hepatocytes and α-DNP antibody: dependent on the concentration of D-MoDE-A
[1]; FIG. 6B
  ternary complex formation in presence of competitive binders of ASGPR or α-DNP antibody: inhibited by competitive binders of either ASGPR or α-DNP antibody
α-DNP antibody [2]
  endocytosis of α-DNP antibody in hepatocytes: dependent on both α-DNP antibody and DMoDE-A concentration
α-DNP antibody [3]
  Alexa 488 signal in colocalization studies: dependent on the presence of α-DNP antibody and D-MoDE-A
α-DNP antibody [4]
  serum levels of α-DNP antibody: decrease in serum levels of α-DNP antibody

Reference: patent US12128105B2, “Molecular degraders of extracellular proteins” (priority 2021, dated 2024)
